These results are taken from US7135466B2 (Kirin Beer Kabushiki Kaisha, priority 1999, dated 2006).

Assay [1] addresses T1, PDGF-Ra (Homo sapiens, UniProt P16234).
T1 construct: host or cells: G-292 human osteosarcoma cells
Briefly: Inhibitory activity against PDGF-Ra phosphorylation by PDGF-AA stimulation using G292. It counts as cell-based. The settings on record: for IC50: > means inhibition at indicated concentration not more than 50%, < and << not less than 50%, read-out: PDGF (E) IC50; for inhibition at 0.1 µM: G292, figure within parentheses in >100( ), at 100 nM, read-out: PDGF (E) inhibition (%) at 100 nM. The method in brief:
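In G-292 osteosarcoma cells kept overnight in 0.1% FBS, compound exposure (1 hr, 37 °C) preceded PDGF-AA stimulation at 50 ng/ml for 5 min; receptor phosphotyrosine was then detected by PY-20 capture ELISA.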

Assay [2] has as its target T2, c-kit (Homo sapiens, UniProt P10721).
T2 construct: MO7e (human megakaryocytic leukemia cell line) which had been arrested for 20 hr; endogenous in cells; host or cells: MO7e human megakaryocytic leukemia cell line
In words: Inhibitory activity against c-kit autophosphorylation (MO7e cells, h-SCF). It counts as cell-based. The settings on record: for IC50: MO7e cells, 50 ng/ml h-SCF, read-out: c-kit IC50; for inhibition at 1 µM: Mo7e, figure within parentheses in −( ) or >1000( ), at 1000 nM. The essentials: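 Growth-arrested (20 hr) MO7e; cpd in DMSO, 1 hr; h-SCF 50 ng/ml, 5 min; lyse. ELISA: anti-pTyr (PY-20) capture, anti-c-kit 1° Ab, HRP anti-rabbit 2° Ab, A450.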

T2 sequence (P10721 26-976): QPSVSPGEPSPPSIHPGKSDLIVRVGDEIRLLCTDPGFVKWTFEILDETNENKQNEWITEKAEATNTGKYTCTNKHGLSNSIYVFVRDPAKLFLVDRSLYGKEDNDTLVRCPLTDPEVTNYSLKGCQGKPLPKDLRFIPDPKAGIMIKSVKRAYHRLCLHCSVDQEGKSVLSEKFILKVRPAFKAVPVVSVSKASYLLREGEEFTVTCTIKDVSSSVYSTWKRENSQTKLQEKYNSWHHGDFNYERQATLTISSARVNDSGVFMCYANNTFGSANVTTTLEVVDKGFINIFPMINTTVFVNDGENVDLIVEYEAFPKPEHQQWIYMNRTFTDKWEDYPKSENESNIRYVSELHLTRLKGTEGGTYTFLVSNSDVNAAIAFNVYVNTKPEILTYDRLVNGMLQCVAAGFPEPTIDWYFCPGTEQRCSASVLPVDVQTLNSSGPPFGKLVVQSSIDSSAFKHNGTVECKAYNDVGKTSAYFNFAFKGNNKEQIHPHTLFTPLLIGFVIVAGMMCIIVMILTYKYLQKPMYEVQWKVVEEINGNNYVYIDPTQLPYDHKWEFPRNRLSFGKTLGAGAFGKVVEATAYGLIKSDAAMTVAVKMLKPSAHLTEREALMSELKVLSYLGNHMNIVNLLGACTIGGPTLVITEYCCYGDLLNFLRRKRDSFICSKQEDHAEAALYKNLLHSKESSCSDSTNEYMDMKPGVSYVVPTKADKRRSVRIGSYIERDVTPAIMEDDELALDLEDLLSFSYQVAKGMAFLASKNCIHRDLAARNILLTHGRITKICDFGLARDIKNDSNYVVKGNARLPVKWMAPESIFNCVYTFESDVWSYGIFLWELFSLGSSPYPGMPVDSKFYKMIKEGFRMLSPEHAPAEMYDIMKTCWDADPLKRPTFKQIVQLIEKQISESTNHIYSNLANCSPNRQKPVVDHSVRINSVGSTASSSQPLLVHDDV
T1 sequence (P16234 24-1089): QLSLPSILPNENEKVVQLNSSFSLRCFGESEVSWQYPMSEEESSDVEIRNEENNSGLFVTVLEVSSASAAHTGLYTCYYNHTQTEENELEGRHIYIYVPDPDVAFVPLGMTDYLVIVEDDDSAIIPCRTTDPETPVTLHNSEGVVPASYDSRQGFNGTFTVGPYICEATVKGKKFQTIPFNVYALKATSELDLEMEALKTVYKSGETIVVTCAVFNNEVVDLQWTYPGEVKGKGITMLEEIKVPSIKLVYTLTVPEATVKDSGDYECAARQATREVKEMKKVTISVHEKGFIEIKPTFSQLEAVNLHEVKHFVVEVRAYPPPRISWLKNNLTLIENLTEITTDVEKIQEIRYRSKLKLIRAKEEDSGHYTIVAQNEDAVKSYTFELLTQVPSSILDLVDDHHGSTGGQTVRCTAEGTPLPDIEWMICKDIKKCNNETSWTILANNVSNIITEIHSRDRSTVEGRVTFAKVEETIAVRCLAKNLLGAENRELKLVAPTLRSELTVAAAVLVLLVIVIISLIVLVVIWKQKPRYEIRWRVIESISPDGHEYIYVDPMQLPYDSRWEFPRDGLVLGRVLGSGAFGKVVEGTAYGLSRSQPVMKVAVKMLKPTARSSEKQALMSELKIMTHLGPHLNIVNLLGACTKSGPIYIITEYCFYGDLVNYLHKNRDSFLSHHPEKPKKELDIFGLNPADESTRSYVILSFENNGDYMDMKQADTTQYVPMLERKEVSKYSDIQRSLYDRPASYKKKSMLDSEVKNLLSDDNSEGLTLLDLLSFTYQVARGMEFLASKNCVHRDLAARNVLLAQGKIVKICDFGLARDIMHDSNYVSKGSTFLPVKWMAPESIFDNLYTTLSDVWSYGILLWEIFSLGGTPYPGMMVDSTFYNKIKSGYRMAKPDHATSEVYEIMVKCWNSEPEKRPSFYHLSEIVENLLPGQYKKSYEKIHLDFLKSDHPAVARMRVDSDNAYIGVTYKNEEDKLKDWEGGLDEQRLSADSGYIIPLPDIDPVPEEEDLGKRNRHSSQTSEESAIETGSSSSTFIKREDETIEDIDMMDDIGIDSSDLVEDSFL

In general, IC50 refers to the point on the concentration scale where inhibition reaches its midpoint. With `CCCC(CCN1CCOCC1)OC(=O)Nc1ccc(Oc2ccnc3cc(OC)c(OC)cc23)c(C)c1C` (stereo not shown) [Example 439, 1-(2-Morpholinoethyl)butyl N-{4-[(6,7-dimethoxy-4-quinolyl)oxy]-2,3-dimethylphenyl}carbamate], the IC50 was determined as 52 nM in assay [1] and 224 nM in assay [2].
Regarding `CCCC(CCN1CCOCC1)OC(=O)Nc1ccc(Oc2ncnc3cc(OC)c(OC)cc23)cc1` (stereo not shown) [Example 440], the figures for the IC50 in assay [1] and in assay [2] were 47 nM and 351 nM, respectively.
For orientation: inhibition means the change of the read-out against control, counted positive when it falls. For the compound `CCCC(CCN(CC)CC)OC(=O)Nc1cc(C)c(Oc2ccnc3cc(OC)c(OC)cc23)cc1C` (stereo not shown) [Example 442, 1-[2-(Diethylamino)ethyl]butyl N-{4-[(6,7-dimethoxy-4-quinolyl)oxy]-2,5-dimethylphenyl}carbamate], in assay [1], the IC50 is greater than 100 nM and the inhibition at 0.1 µM is 32%. The inhibition at 1 µM in assay [2] came out at 28%.
Turning to `CCCC(CCN(CC)CC)OC(=O)Nc1ccc(Oc2ccnc3cc(OC)c(OC)cc23)c(C)c1C` (stereo not shown) [Example 443, 1-[2-(Diethylamino)ethyl]butyl N-{4-[(6,7-dimethoxy-4-quinolyl)oxy]-2,3-dimethylphenyl}carbamate], the values for the IC50 in assay [1] and in assay [2] were 15 nM and 627 nM, respectively.
For the compound `CCCC(CCN(CC)CC)OC(=O)Nc1ccc(Oc2ncnc3cc(OC)c(OC)cc23)cc1` (stereo not shown) [Example 444, 1-[2-(Diethylamino)ethyl]butyl N-{4-[(6,7-dimethoxy-4-quinazolinyl)oxy]phenyl}carbamate], the IC50 is 21 nM in assay [1] and 972 nM in assay [2].
For `CCCC(CCN1CCCCC1)OC(=O)Nc1ccc(Oc2ccnc3cc(OC)c(OC)cc23)cc1` (stereo not shown) [Example 445, 1-(2-Piperidinoethyl)butyl N-{4-[(6,7-dimethoxy-4-quinolyl)oxy]phenyl}carbamate], in assay [1], the IC50 is greater than 100 nM and the inhibition at 0.1 µM was determined as 11%. In assay [2], the IC50 was 941 nM.
For the compound `CCCC(CCN1CCCCC1)OC(=O)Nc1cc(C)c(Oc2ccnc3cc(OC)c(OC)cc23)cc1C` (stereo not shown) [Example 446, 1-(2-Piperidinoethyl)butyl N-{4-[(6,7-dimethoxy-4-quinolyl)oxy]-2,5-dimethylphenyl}carbamate], in assay [1], the IC50 is greater than 100 nM and the inhibition at 0.1 µM stood at 39%. The inhibition at 1 µM in assay [2] came out at 40%.
As for `CCCC(CCN1CCCCC1)OC(=O)Nc1ccc(Oc2ccnc3cc(OC)c(OC)cc23)c(C)c1C` (stereo not shown) [Example 447], in assay [1], the IC50 was greater than 100 nM and the inhibition at 0.1 µM was found to be 11%. Moreover, in assay [2], the IC50 stood at 553 nM.
Regarding `CCCC(CCN1CCCCC1)OC(=O)Nc1ccc(Oc2ncnc3cc(OC)c(OC)cc23)cc1` (stereo not shown) [Example 448, 1-(2-Piperidinoethyl)butyl N-{4-[(6,7-dimethoxy-4-quinazolinyl)oxy]phenyl}carbamate], in assay [1], the IC50 was greater than 100 nM and the inhibition at 0.1 µM is 39%. In addition, the inhibition at 1 µM in assay [2] was determined as 25%.
For `CCCC(CCN1CCN(C)CC1)OC(=O)Nc1ccc(Oc2ccnc3cc(OC)c(OC)cc23)cc1` (stereo not shown) [Example 449, 1-[2-(4-Methylpiperazino)ethyl]butyl N-{4-[(6,7-dimethoxy-4-quinolyl)oxy]phenyl}carbamate], in assay [1], the IC50 is greater than 100 nM and the inhibition at 0.1 µM stood at 26%. Besides, the IC50 in assay [2] was found to be 747 nM.
Consider `CCCC(CCN1CCN(C)CC1)OC(=O)Nc1cc(C)c(Oc2ccnc3cc(OC)c(OC)cc23)cc1C` (stereo not shown) [Example 450, 1-[2-(4-Methylpiperazino)ethyl]butyl N-{4-[(6,7-dimethoxy-4-quinolyl)oxy]-2,5-dimethylphenyl}carbamate], for which, in assay [1], the IC50 was greater than 100 nM and the inhibition at 0.1 µM stood at 13%. Further, the inhibition at 1 µM in assay [2] worked out at 46%.
`CCCC(CCN1CCN(C)CC1)OC(=O)Nc1ccc(Oc2ccnc3cc(OC)c(OC)cc23)c(C)c1C` (stereo not shown) [Example 451, 1-[2-(4-Methylpiperazino)ethyl]butyl N-{4-[(6,7-dimethoxy-4-quinolyl)oxy]-2,3-dimethylphenyl}carbamate]: in assay [1], the IC50 was greater than 100 nM and the inhibition at 0.1 µM was 25%. The IC50 in assay [2] amounted to 613 nM.
Consider `CCCC(CCN1CCN(C)CC1)OC(=O)Nc1ccc(Oc2ncnc3cc(OC)c(OC)cc23)cc1` (stereo not shown) [Example 452, 1-[2-(4-Methylpiperazino)ethyl]butyl N-{4-[(6,7-dimethoxy-4-quinazolinyl)oxy]phenyl}carbamate], for which, in assay [1], the IC50 is greater than 100 nM and the inhibition at 0.1 µM was 31%. Further, in assay [2], the inhibition at 1 µM turned out to be 37%.
As for `COc1cc2nccc(Oc3ccc(NC(=O)Oc4cccc(C#N)c4)c(C)c3C)c2cc1OC` [Example 459, 3-Cyanophenyl N-{4-[(6,7-dimethoxy-4-quinolyl)oxy]-2,3-dimethylphenyl}carbamate], the IC50 in assay [1] was 47 nM; in assay [2] it was less than 30 nM.
The matching figures for `COc1cc2nccc(Oc3ccc(NC(=O)OC4CCCN(C)C4)cc3)c2cc1OC` (stereo not shown) [Example 462, 1-Methyl-3-piperidyl N-{4-[(6,7-dimethoxy-4-quinolyl)oxy]phenyl}carbamate]: 52 nM and 575 nM.
Take `COc1cc2nccc(Oc3cc(C)c(NC(=O)OC4CCCN(C)C4)cc3C)c2cc1OC` (stereo not shown) [Example 463, 1-Methyl-3-piperidyl N-{4-[(6,7-dimethoxy-4-quinolyl)oxy]-2,5-dimethylphenyl}carbamate]: the IC50 in assay [1] was 91 nM; in assay [2], 432 nM.
The matching figures for `COc1cc2nccc(Oc3ccc(NC(=O)OC4CCCN(C)C4)c(C)c3C)c2cc1OC` (stereo not shown) [Example 464, 1-Methyl-3-piperidyl N-{4-[(6,7-dimethoxy-4-quinolyl)oxy]-2,3-dimethylphenyl}carbamate]: 55 nM and 201 nM.
As to `COc1cc2ncnc(Oc3ccc(NC(=O)OC4CCN(C)CC4)cc3)c2cc1OC` [Example 469, 1-Methyl-4-piperidyl N-{4-[(6,7-dimethoxy-4-quinazolinyl)oxy]phenyl}carbamate], in assay [1], the 50% inhibitory concentration (IC50) was greater than 100 nM and the inhibition at 0.1 µM is 0%. Besides, in assay [2], the inhibition at 1 µM amounted to 28%.
With `COc1cc2nccc(Oc3ccc(NC(=O)OC4CCOCC4)cc3)c2cc1OC` [Example 470, Tetrahydro-2H-4-pyranyl N-{4-[(6,7-dimethoxy-4-quinolyl)oxy]phenyl}carbamate], the IC50 in assay [1] came out at 26 nM; in assay [2] it was 128 nM.
As for `COc1cc2nccc(Oc3cc(C)c(NC(=O)OC4CCOCC4)cc3C)c2cc1OC` [Example 471, Tetrahydro-2H-4-pyranyl N-{4-[(6,7-dimethoxy-4-quinolyl)oxy]-2,5-dimethylphenyl}carbamate], the IC50 in assay [1] is greater than 100 nM; in assay [2], 237 nM. Further, in assay [1], the inhibition at 0.1 µM is 28%.
On to `COc1cc2nccc(Oc3ccc(NC(=O)OC4CCOCC4)c(C)c3C)c2cc1OC` [Example 472, Tetrahydro-2H-4-pyranyl N-{4-[(6,7-dimethoxy-4-quinolyl)oxy]-2,3-dimethylphenyl}carbamate], for which the IC50 stood at 31 nM in assay [1] and 67 nM in assay [2].
On to `COc1cc2ncnc(Oc3ccc(NC(=O)OC4CCOCC4)cc3)c2cc1OC` [Example 473, Tetrahydro-2H-4-pyranyl N-{4-[(6,7-dimethoxy-4-quinazolinyl)oxy]phenyl}carbamate], for which, in assay [1], the IC50 was greater than 100 nM and the inhibition at 0.1 µM was found to be 30%. For the same compound, the IC50 in assay [2] came out at 259 nM.
Turning to `COc1cc2ncnc(Oc3ccc(N(C)C(=O)OC4CCCCC4)c(Cl)c3)c2cc1OC` [Example 474, Cyclohexyl N-{2-chloro-4-[(6,7-dimethoxy-4-quinazolinyl)oxy]phenyl}-N-methylcarbamate], the IC50 in assay [1] is 46 nM. For the same compound, the inhibition at 1 µM in assay [2] turned out to be 6%.
Take `CCN(C(=O)OC1CCCCC1)c1ccc(Oc2ncnc3cc(OC)c(OC)cc23)cc1Cl` [Example 475, Cyclohexyl N-{2-chloro-4-[(6,7-dimethoxy-4-quinazolinyl)oxy]phenyl}-N-ethylcarbamate]: the IC50 in assay [1] came to 15 nM. Further, the inhibition at 1 µM in assay [2] is 24%.
With `COc1cc2ncnc(Oc3ccc(N(C)C(=O)OC4CCCCC4)cc3)c2cc1OC` [Example 476, Cyclohexyl N-{4-[(6,7-dimethoxy-4-quinazolinyl)oxy]phenyl}-N-methylcarbamate], the results for the IC50 in assay [1] and in assay [2] were less than 10 nM and 172 nM, respectively.
`CCN(C(=O)OC1CCCCC1)c1ccc(Oc2ncnc3cc(OC)c(OC)cc23)cc1` [Example 477, Cyclohexyl N-{4-[(6,7-dimethoxy-4-quinazolinyl)oxy]phenyl}-N-ethylcarbamate]: the half-inhibitory concentration (IC50) came out at 59 nM in assay [1] and 248 nM in assay [2].
Take `COc1ccccc1COC(=O)N(C)c1ccc(Oc2ncnc3cc(OC)c(OC)cc23)cc1Cl` [Example 478, 2-Methoxybenzyl N-{2-chloro-4-[(6,7-dimethoxy-4-quinazolinyl)oxy]phenyl}-N-methylcarbamate]: the 50% inhibitory concentration (IC50) in assay [1] is 17 nM. Moreover, the inhibition at 1 µM in assay [2] stood at 28%.
In the same order, the values of `COc1cc2ncnc(Oc3ccc(N(C)C(=O)OCc4ccccc4C)c(Cl)c3)c2cc1OC` [Example 479, 2-Methylbenzyl N-{2-chloro-4-[(6,7-dimethoxy-4-quinazolinyl)oxy]phenyl}-N-methylcarbamate] are 13 nM and 17%.
In the same order, the values of `COc1cc2ncnc(Oc3ccc(N(C)C(=O)OCc4ccccc4Cl)c(Cl)c3)c2cc1OC` [Example 480, 2-Chlorobenzyl N-{2-chloro-4-[(6,7-dimethoxy-4-quinazolinyl)oxy]phenyl}-N-methylcarbamate] are 10 nM and 22%.
